{
  "source": "patent US20260284016A1",
  "about": "“COMBINATIONS AND METHODS FOR ENHANCING CHECKPOINT INHIBITOR THERAPIES IN CANCER TREATMENT” (PURDUE RESEARCH FOUNDATION, priority 2004, published 2026)",
  "key": {"[1]": {"system": "human primary monocyte-derived M2-macrophages", "experiment": "IL-6 and CXCL-10 induction in monocyte-derived M2-macrophages", "format": "cell-based", "conditions": "48 hours"}, "[2]": {"system": "peripheral blood mono nuclear cells (PBMCs)", "experiment": "IL-6 in PBMC culture supernatant by ELISA", "format": "cell-based", "conditions": "24 hours", "protocol": "To evaluate the efficacy of TLR-7 agonists, Compound 1 (TLR7-TA), Compound 2 (TLR7-1B) and Compound 3 (TLR7-1C) were treated with peripheral blood mono nuclear cells (PBMCs) for 24 hours. TLR7-1 was used as control. Cell culture supernatant was isolated and tested for IL-6 using enzyme-linked immunosorbent assay (ELISA) (FIG. 22)."}},
  "data": [
    {"smiles": "Nc1nc2ncc(CNc3ccc(C(=O)NC(CCC(=O)N[C@@H](CSSCCOC(=O)OCC4CCCN(CCNc5ccc(Cn6c(=O)[nH]c7c(N)nc(C(F)(F)F)cc76)cn5)C4)C(=O)O)C(=O)O)cc3)nc2c(=O)[nH]1", "note": "(stereo partly shown) [Compound 3]", "values": [
      {"measurement": "CXCL-10 induction compared to parent compound TLR7-1", "setting": "[1]", "result": "more efficiently"},
      {"measurement": "IL-6 induction compared to parent compound TLR7-1", "setting": "[1]", "result": "more efficiently"},
      {"measurement": "macrophage polarization (M1 markers IL-6, CXCL10)", "setting": "[1]", "result": "polarize the M2 macrophages to M1 macrophages"},
      {"measurement": "IL-6 in culture supernatant", "setting": "[2]", "result": "increased expression of IL-6"}
    ]}
  ]
}
